Two molecules from patent US9546201B2, “MUC-1 cytoplasmic domain peptides as inhibitors of cancer” (DANA-FARBER CANCER INSTITUTE, INC., priority 2008, dated 2017) can be followed below.

Where a SMILES comes first, the peptide text is derived from it. Where no end group is shown, it is not given here. [ ]: non-standard residue; d: D form.

Series [1] relates to multiple carcinoma cell lines. Description: Inventors' recent studies of MUC1 C-terminal peptides on carcinoma cell lines. Format: cell-based. The settings on record: L-amino acid peptide. The source says: However, these MUC1-C-terminal peptides consists of L-amino acids. […] Consequently, they have generated an all-dextro form of the above described shorter MUC1 C-terminal peptide, in which the L-amino acids were changed to D-amino acids (GO-203). Moreover, to determine the minimum amino acid residues from the MUC1-C-terminal region that are required to retain the cell killing activity, they have also generated many different versions of GO-203 as described in FIG. 8.

A further series deals with MUC1-negative 293 cells. Description: Viable cell number by trypan blue exclusion, 293 cells. Format: cell-based. The conditions noted are these: 5 μM. The protocol: FIGS. 4A-E. Selectivity of MUC1/CQC for MUC1 expressing breast cancer cells. (FIG. 4A) ZR-75-1 cells were stably infected with an empty lentivirus (vector) or one expressing a MUC1 siRNA. Lysates for the infected cells were immunoblotted with the indicated antibodies. (FIG. 4B) ZR-75-1/vector cells were left untreated (diamonds), and ZR-75-1/vector (squares) and ZR-75-1/MUC1siRNA (triangles) cells were treated with 5 μM MUC1/CQC peptide for the indicated times. Viable cell number was determined by trypan blue exclusion. (FIG. 4C) 293 cells were left untreated (diamonds), and treated with 5 μM MUC1/CQC (squares) or MUC1/AQA (triangles) for the indicated times. Viable cell number was determined by trypan blue exclusion. (FIG. 4D) MCF-10A cells were left untreated (left panel), and treated with 5 μM MUC1/CQC (middle panel) or MUC1/AQA (right panel). At 3 d, cells were analyzed for cell cycle distribution. […] Viable cell number was determined by trypan blue exclusion.
Human breast cancer ZR-75-1, ZR-75-1/vector, ZR-75-1/MUC1siRNA (Ren et al., 2004) cell lines were grown in RPMI1640 medium supplemented with 10% heat-inactivated fetal bovine serum (HI-FBS), 100 U/ml penicillin, and 100 μg/ml streptomycin (Invitrogen) in a humidified incubator at 37° C. and 5% CO2. […] Viability was determined by trypan blue exclusion. […]

Series [2] is described as follows: Body weight of nude mice under peptide administration. Format: in vivo.
Another series addresses T1, His-MUC1-CD (Homo sapiens, UniProt P15941).
T1 sequence (P15941 1184-1255): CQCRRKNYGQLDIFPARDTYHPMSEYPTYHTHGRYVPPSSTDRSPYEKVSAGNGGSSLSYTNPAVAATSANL
As to the kind of experiment: BIAcore binding to immobilized His-MUC1-CD. The conditions noted are these: data not shown. The protocol: FIGS. 1A-D. MUC1/CQC peptide blocks MUC1 oligomerization. (FIG. 1A) Schematic representation of the MUC1-C subunit and the 72-amino acid sequence of MUC1-CD (SEQ ID NO: 1) are shown. The N-terminal 15 amino acids (shaded sequence; SEQ ID NO: 3) MUC1/CQC (SEQ ID NO: 63) and mutated MUC1/AQA (SEQ ID NO: 60) peptides were synthesized with the poly-dArg transduction domain. (FIG. 1B) His-MUC1-CD (1.4 mg/ml) was immobilized on a sensor chip in a BIAcore. MUC1/CQC was injected over the chip at 10 μM. Raw binding data were analyzed by BIAevaluation software version 3.0 and fit to a 1:1 Languir binding model. (FIG. 1C) Purified His-MUC1-CD (1.5 mg/ml) was incubated with PBS, 200 μM MUC1/CQC or 200 μM MUC1/AQA for 1 h at room temperature. The proteins were separated in a non-reducing SDS-polyacrylamide gel and analyzed by immunoblotting with anti-MUC1-C. (FIG. 1D) 293 cells were transiently transfected to express an empty vector or GFP-MUC1-CD and Flag-MUC1-CD. At 48 h after transfection, the cells were treated with 5 μM MUC1/CQC or MUC1/AQA for 3 d. The cells were then harvested for immunoblotting with anti-MUC1-C (left panel). […]
The MUC1 cytoplasmic domain (MUC1-CD) contains a CQC motif that is necessary for the formation of oligomers and nuclear localization (Leng et al., 2007). […] Purified His-tagged MUC1-CD forms oligomers as detected by electrophoresis in polyacrylamide gels (FIG. 1C). […]
In general terms: Surface plasmon resonance follows binding to a sensor surface in real time, without labels.

On to `CC[C@H](C)[C@H](NC(=O)[C@H](CC(=O)O)NC(=O)[C@H](CC(C)C)NC(=O)[C@H](CCC(N)=O)NC(=O)CNC(=O)[C@H](Cc1ccc(O)cc1)NC(=O)[C@H](CC(N)=O)NC(=O)[C@H](CCCCN)NC(=O)[C@H](CCCNC(=N)N)NC(=O)[C@H](CCCNC(=N)N)NC(=O)[C@H](CS)NC(=O)[C@H](CCC(N)=O)NC(=O)[C@H](CS)NC(=O)[C@@H](CCCNC(=N)N)NC(=O)[C@@H](CCCNC(=N)N)NC(=O)[C@@H](CCCNC(=N)N)NC(=O)[C@@H](CCCNC(=N)N)NC(=O)[C@@H](CCCNC(=N)N)NC(=O)[C@@H](CCCNC(=N)N)NC(=O)[C@@H](CCCNC(=N)N)NC(=O)[C@@H](CCCNC(=N)N)NC(=O)[C@H](N)CCCNC(=N)N)C(=O)N[C@@H](Cc1ccccc1)C(=O)N1CCC[C@H]1C(=O)O` [MUC1/CQC] (H-[dR][dR][dR][dR][dR][dR][dR][dR][dR]CQCRRKNYGQLDIFP-OH; N-terminus and C-terminus assumed), for which the “growth of carcinoma cell lines” value in series [1] is reported as “active in inhibiting growth of multiple carcinoma cell lines”. In addition, the effect on growth entry in the series on MUC1-negative 293 cells is “no apparent effect”. Also, in series [2] (50 mg/kg IP once each day over 11 d, female nude mice), the “effect on weight of the individual mice” value was “no apparent effect”. Besides, the “effect on bodyweight after stopping administration” value in series [2] (next 28 d after 50 mg/kg IP daily for 11 d, data not shown) is “no subsequent effect on bodyweight”.
Consider “MUC1/AQA: control peptide in which the CQC motif was altered to AQA, with poly-dArg transduction domain; SEQ ID NO: 60 ([dR][dR][dR][dR][dR][dR][dR][dR][dR]AQARRKNYGQLDIFP) [reference compound]”, for which the “binding to His-MUC1-CD” value with His-MUC1-CD was “no apparent binding”.
